The record followed here is patent US20260124200A1, “METHOD OF TREATING NEURODEGENERATIVE DISEASES” (The Board of Trustees of the University of Illinois, priority 2022, published 2026).

Series [1] deals with fpn-1.2KO C. elegans. The experiment in a line: Dopaminergic neurodegeneration scoring in fpn-1.2KO; Pdat::GFP worms. It is filed as in vivo. From the text:
(§1) The ability of hinokitiol and FeM-1269 to confer neuroprotection. Replicated NBIA, was created fpn-1.2KO C. elegans strain using CRISPR/Cas9-mediated knockout and then mated with Pdat::GFP strain to create a fpn-1.2KO strain with GFP-tagged dopaminergic neurons (fpn-1.2KO; Pdat::GFP). The genotype of strains was verified by genotyping PCR and Sanger sequencing. All strains used have been backcrossed to N2 at least three times. To treat C. elegans with small molecules, day 4 adult worms were transferred to NGM containing small molecules. Worms were transferred to newly seeded small molecules containing NGM until the day seven in which they are imaged using a confocal microscope with GFP fluorescence. The scoring is conducted in a blinded study in which the integrity of the dopaminergic neuron is observed to reflect neurodegeneration. […] Hinokitiol derivative FeM-1269 may have potential to increase the therapeutic index of hinokitiol. […] On the other hand, hinokitiol and FeM-1269 treatment to fpn-1.2KO worms caused robust reductions of fluorescence levels (FIG. 3G-H) from the concentration of 0.1 μM and 0.05 μM, respectively, which can be associated with the release of intracellular iron from ASI neurons. […]

Series [2] concerns fpn-1.2KO C. elegans. The experiment in a line: GFP-tagged ferritin (ftn-1) fluorescence in ASI neurons of fpn-1.2KO worms. It is filed as in vivo.
From the text: as §1

Series [3] can be described thus: Cyclic voltammetry of hinokitiol-iron complexes. The format is physicochemical. The conditions noted are these: 100 mV/s, 0.1 M Tris, 1:1 MeOH:H2O, pH=7.2, 100 μM Fe(NO3)3. The procedure:
These were obtained with a 100 mV/s scan rate with a Hg electrode, Ag/AgCl reference, and graphite auxiliary using a 0.1 M Tris buffer in 1:1 MeOH:H2O at pH=7.2 and 100 μM Fe(NO3)3.

The test system of the next series is flatiron mice. Put plainly: ICP-MS brain iron level in flatiron mice. It is filed as in vivo. The procedure:
In parallel to C. elegans, flatiron mice were used, a leading animal model of FPN1 deficiency due to H32R mutation of FPN1 (34, 35). These mice were subjected to ICP-MS and behavioral studies in which blood samples and tissues were collected and submitted for analysis. In addition, behavior was assessed by an elevated plus maze, exploratory mazes, and daily monitoring. […] To determine dose-dependency these mice were subjected to a singular IP injection to assess acute administration and then treated chronically via IP injections of 10 mg/kg for a week.

Series [4] in a line: EPR of Fe(II) oxidation on compound binding.
The target of another series is human apo-Tf (Homo sapiens, UniProt P02787). The experiment in a line: Iron handoff to transferrin. The format is biochemical. The procedure:
For kinetic experiments, 4 μM human apo-Tf was incubated with 64 μM Fe(Hino)3 complex. The reactions were stopped at several time points using sample buffer. Samples were run using the same conditions as above. After running, the gels were stained with RAPIDStain (G-biosciences 786-31), according to the manufacturer's instructions. The formation of different Fe-Tf species was quantified by measuring the band densities using ImageLab 4.1 (Bio-Rad) and expressed as a function of molar fractions.

Series [5] in a line: LC-MS in vitro dopamine oxidation assay. It is filed as physicochemical. Particulars: 100 μM dopamine. The procedure: To monitor dopamine oxidation, an in vitro assay using an LC-MS was developed by monitoring dopamine concentrations via mass spectrometry hits. Samples of 100 μM dopamine were prepared and then treated with either control, hino, or FeM-1269. […] In addition, this was monitored via LC-MS to see the concentration of DAC generated in this same process.

In a further series the test system is FPN1.2KO C. elegans. Put plainly: ROS (DCF) in lysate of treated FPN1.2KO C. elegans. Particulars: treated day four, collected day 5, lysate with DCF. The format is in vivo.

Sequence of human apo-Tf (P02787 20-698): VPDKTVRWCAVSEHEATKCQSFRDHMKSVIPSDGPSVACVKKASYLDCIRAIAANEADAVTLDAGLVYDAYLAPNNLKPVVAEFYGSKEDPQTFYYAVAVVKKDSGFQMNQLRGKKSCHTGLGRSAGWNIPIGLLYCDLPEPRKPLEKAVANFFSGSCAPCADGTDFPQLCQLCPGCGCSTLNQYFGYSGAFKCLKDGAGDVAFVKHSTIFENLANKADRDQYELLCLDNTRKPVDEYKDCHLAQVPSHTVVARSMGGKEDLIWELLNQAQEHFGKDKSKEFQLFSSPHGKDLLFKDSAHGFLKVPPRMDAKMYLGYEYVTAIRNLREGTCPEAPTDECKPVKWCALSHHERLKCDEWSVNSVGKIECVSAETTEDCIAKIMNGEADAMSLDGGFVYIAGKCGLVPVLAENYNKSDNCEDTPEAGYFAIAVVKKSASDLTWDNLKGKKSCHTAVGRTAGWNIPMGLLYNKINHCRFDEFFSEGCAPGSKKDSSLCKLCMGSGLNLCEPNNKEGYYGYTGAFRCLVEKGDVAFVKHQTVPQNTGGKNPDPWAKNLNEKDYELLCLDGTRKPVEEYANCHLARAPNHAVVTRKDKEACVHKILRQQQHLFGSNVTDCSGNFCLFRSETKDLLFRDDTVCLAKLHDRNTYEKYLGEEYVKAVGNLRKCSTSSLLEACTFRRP

Consider `Cc1c(O)c(=O)ccn1C` [DFP, deferiprone], for which the “neuroprotective effect (dopaminergic neurodegeneration score)” value with fpn-1.2KO C. elegans [1] (all concentrations administered) is given as “did not confer neuroprotective effects”. Further, the “ferritin-GFP fluorescence level in ASI neurons” value with fpn-1.2KO C. elegans [2] (all administered concentrations) is “failed to reduce the fluorescence level”.
On to `CC(C)c1cccc(=O)c(O)c1` [hinokitiol], for which, in series [3], the “redox potentials of Fe:Hino” value is “decreased with increasing hinokitiol concentrations”. Also, the blood-brain barrier penetration entry with flatiron mice (inferred from brain iron decrease) was “capacity to penetrate blood-brain barrier”. Moreover, the “brain iron level after acute administration” value with flatiron mice (singular IP injection) is reported as “dose-dependent decrease of brain iron level”. In the series with fpn-1.2KO C. elegans [1] (worms treated day 4 to day seven), the “concentration showing neuroprotective efficacy” value is 0.05 to 0.1 µM. Moreover, the “ferroxidase-mimicking activity (EPR)” value in series [4] (EPR results) is given as “promoting Fe(II) oxidation to Fe(III)”. In series [4] (Fe(II) plus compound 3:1, 1:1 MeOH:H2O, 77K), the “EPR signal g′” value is recorded as 4.3. Besides, the “iron handoff to transferrin” value on human apo-Tf is given as “can handoff iron to transferrin”. For the same molecule, the “concentration from which fluorescence levels are robustly reduced” value with fpn-1.2KO C. elegans [2] (ASI neurons, GFP-tagged ferritin) is ≥ 0.1 µM. In addition, in series [5], the “dopamine oxidation (dopamine remaining)” value is given as “mitigating dopamine oxidation”. The “ROS level in vivo” value in the series on FPN1.2KO C. elegans was “restore wild type levels of ROS”.
